Consider five compounds from EP1337551B1, “SUBSTANCE P ANALOGS FOR THE TREATMENT OF CANCER” (DABUR PHARMA LTD., priority 2000, dated 2002).

Non-standard residues stand in square brackets, D forms with d. Residues, ends and D or L forms follow the SMILES beside them. pHOPA = not defined here

One data set concerns U373 (glioblastoma). Description: In vitro cytotoxic activity, MTT assay, 72 hours. The format is cell-based, human. Here is the method: (§1) The cytotoxic activity of synthesized peptides was tested on six human tumor cell lines namely MCF7 (breast), U373 (glioblastoma), PTC, (colon), L132 (lung), Su.86.86 (pancreas), and KB (oral). The tumor cells were collected at exponential growth phase and resuspended in medium (1.5 x 10^6 cells/ml in RPMI 1640 containing 10% FBS). 150µL of medium was added to the wells of a 96-well tissue culture plate (Nunc, Denmark) followed by 30µl of cell suspension. The plate was left in an incubator (37°C, 5% CO2) overnight. 20µl of the peptide (100 pM to 10 µM concentration) was added to marked wells of the 96-well plate. Each concentration was plated in triplicate. 20µl of medium alone was added to control wells while wells without cells served as blanks. A total volume of 200µL was ensured in each well and plate was left in incubator (37°C, 5% CO2). After 72 hours of incubation an MTT assay was performed and percentage cytotoxicity was calculated with respect to control cells.

The next data set has as its system PTC, (colon). The data set can be described thus: In vitro cytotoxic activity, MTT assay, 72 hours. The format is cell-based, human. As to the method:
as §1
Background: Tetrazolium dyes change colour on reduction, which living cells bring about.

The next data set concerns MCF7 (breast). Description: In vitro cytotoxic activity, MTT assay, 72 hours. The format is cell-based, human. Here is the method: as §1
For the next data set, the system named is L132 (lung). The data set can be described thus: In vitro cytotoxic activity, MTT assay, 72 hours. The format is cell-based, human. As to the method:
as §1

A further data set deals with KB (oral). Description: In vitro cytotoxic activity, MTT assay, 72 hours. It is filed as cell-based, human. As to the method:
as §1

The next data set deals with Su.86.86 (pancreas). The data set can be described thus: In vitro cytotoxic activity, MTT assay, 72 hours. The format is cell-based, human. Here is the method:
as §1

For another data set, the system named is U87MG (Blioblastoma). Description: In vitro cytotoxic activity of lipo conjugates, MTT assay, 48 hours. It is filed as cell-based. Here is the method:
(§2) The cytotoxic effect of lipo-conjugates of substance P analogs SEQ ID NO: 6, SEQ ID NO: 7 and SEQ ID NO: 8, was studied by MTT assay which is based on the principle of uptake of MTT [3-[4,5-dimethylthiazol-2-yl]-2,5-diphenyl tetrazolium bromide], a tetrazolium salt by the metabolically active cells where it is metabolized by active mitochondria in to a blue colored formazan product which can be read spectrophotometrically. Briefly, tumor cells - KB (Oral squamous), U87MG (Blioblastoma), HBL100 (Breast), HeP2 (Larngeal), ECV304 (Endothelial), PA-1 (Ovary) and L132 (Lunng) were incubated with the peptide analogs for 48 hours at 37°C in a 96-well culture plate, followed by the addition of 100 µg MTT and further incubation of 1 hour. The formazan crystals formed inside the cells were dissolved with a detergent comprising of 10% Sodium dodecyl sulfate and 0.01 N HCl and optical density read on a multiscan ELISA reader. The optical density was directly proportional to the number of proliferating and metabolically active cells. SEQ ID NO: 6

A further data set has as its system HBL100 (Breast). Described as above. The format is cell-based. Here is the method:
as §2

The next data set concerns ECV304 (Endothelial). The description is as above. The format is cell-based. As to the method: as §2
Another data set relates to HeP2 (Larngeal). The description is as above. The format is cell-based. As to the method:
as §2

A further data set concerns L132 (Lunng). Described as above. It is filed as cell-based. Here is the method: as §2
Another data set concerns KB (Oral squamous). Described as above. The format is cell-based. As to the method:
as §2

The next data set has as its system PA-1 (Ovary). The description is as above. It is filed as cell-based. As to the method:
as §2

The next data set concerns SCLC. The conditions noted are these: inhibition of SCLC proliferation; cited from earlier work.
For data set [1], the system named is H-510 and H-69 SCLC cells. Conditions: proliferation of H-510 and H-69 SCLC cells in liquid culture and in semi-solid media; cited from earlier work.

For `CCCC(=O)N[C@H](CCCNC(=N)N)C(=O)N1CCC[C@H]1C(=O)N[C@@H](CCCCN)C(=O)N1CCC[C@H]1C(=O)N[C@H](Cc1ccccc1)C(=O)N[C@@H](CCC(N)=O)C(=O)N[C@H](Cc1c[nH]c2ccccc12)C(=O)N[C@@H](Cc1ccccc1)C(=O)N[C@H](Cc1c[nH]c2ccccc12)C(=O)N[C@@H](CC(C)C)C(=O)NC1(C(N)=O)CCCC1` [SEQ ID NO: 7, Butanoyl-D-Arg-Pro-Lys-Pro-D-Phe-Gln-D-Trp-Phe-D-Trp-Leu-Ac5c-NH2] (HELM PEPTIDE1{[CCCC(=O)[*:2]].[dR].P.K.P.[dF].Q.[dW].F.[dW].L.[O=C(C1(N[*:1])CCCC1)[*:2]].[am]}$$$$V2.0), the “Percentage cytotoxicity at different concentrations” value turned out to be 10.9 ± 1.0% in the data set with U373 (glioblastoma) (100pM); 13.4 ± 4.6% in the data set with U373 (glioblastoma) (1nM); 6.6 ± 0.7% in the data set with U373 (glioblastoma) (10nM); 8.8 ± 0.2% in the data set with U373 (glioblastoma) (100nM); 8.3 ± 0.5% with U373 (glioblastoma) (1µM); 21.1 ± 1.7% with U373 (glioblastoma) (10µM). Moreover, the “Percentage cytotoxicity at different concentrations” value is “Nil” in the data set on PTC, (colon) (100pM); “Nil” in the data set on PTC, (colon) (1nM); 5.8 ± 0.2% in the data set on PTC, (colon) (10nM); 5.3 ± 0.2% with PTC, (colon) (100nM); 11.7 ± 3.0% with PTC, (colon) (1µM); 27.3 ± 5.4% in the data set with PTC, (colon) (10µM). Besides, the “Percentage cytotoxicity at different concentrations” value turned out to be 19.3 ±1.8% with MCF7 (breast) (MCF-7, 100pM); 20.55 ± 3.1% in the data set on MCF7 (breast) (MCF-7, 1nM); 5.7 ± 1.5% in the data set with MCF7 (breast) (MCF-7, 10nM); 15.4 ± 0.7% in the data set on MCF7 (breast) (MCF-7, 100nM); 11.7 ± 5.1% in the data set on MCF7 (breast) (MCF-7, 1µM); 19.7 ±5% in the data set on MCF7 (breast) (MCF-7, 10µM). In addition, the “Percentage cytotoxicity at different concentrations” value with L132 (lung) (100pM) was determined as 14 ± 3.4%; in the data set on L132 (lung) (1nM), 25 ± 8%; with L132 (lung) (10nM), 19 ± 3.3%; in the data set on L132 (lung) (100nM) it was 9 ± 2.3%; in the data set on L132 (lung) (1µM) it was 9 ± 2.3%; with L132 (lung) (10µM) it was 15 ± 2.3%. Further, the “Percentage cytotoxicity at different concentrations” value was “Nil” in the data set with KB (oral) (100pM); 6 ± 0.9% in the data set on KB (oral) (1nM); 10 ± 3.4% in the data set with KB (oral) (10nM); 10 ± 4.9% in the data set with KB (oral) (100nM); 4 ± 2.6% in the data set on KB (oral) (1µM); 15 ± 2.3% in the data set on KB (oral) (10µM). Moreover, the “Percentage cytotoxicity at different concentrations” value amounted to 6 ± 1.8% in the data set on Su.86.86 (pancreas) (Su8686, 100pM); 25 ± 5.3% in the data set on Su.86.86 (pancreas) (Su8686, 1nM); 10 ± 2.8% in the data set on Su.86.86 (pancreas) (Su8686, 10nM); 15 ± 3.8% in the data set on Su.86.86 (pancreas) (Su8686, 100nM); 36 ± 3.3% in the data set on Su.86.86 (pancreas) (Su8686, 1µM); 38 ± 4.3% in the data set on Su.86.86 (pancreas) (Su8686, 10µM). The “Percentage cytotoxicity at different concentrations” value with U87MG (Blioblastoma) (1nM) was 22.9 ± 2.3%; with U87MG (Blioblastoma) (10nM) it was 27.8 ± 2.2%; in the data set on U87MG (Blioblastoma) (100nM), 21.8 ± 1.2%; with U87MG (Blioblastoma) (1µM), 14.8 ± 1.4%; in the data set on HBL100 (Breast) (1nM), 13.9 ± 3.5%; in the data set on HBL100 (Breast) (10nM), 22.9 ± 3.8%. Also, the “Percentage cytotoxicity at different concentrations” value in the data set on HBL100 (Breast) (100nM) worked out at 23.9 ± 1.7%; in the data set on HBL100 (Breast) (1µM), 22.8 ± 1.4%; in the data set with ECV304 (Endothelial) (1nM), 13.9 ± 4.5%; with ECV304 (Endothelial) (10nM), 16.5 ± 3.3%; with ECV304 (Endothelial) (100nM), 20.9 ± 2.3%; in the data set on ECV304 (Endothelial) (1µM) it was 6.0 ± 2.4%. Besides, the “Percentage cytotoxicity at different concentrations” value in the data set with HeP2 (Larngeal) (1nM) amounted to 16.4 ± 3.2%; in the data set with HeP2 (Larngeal) (10nM) it was 19.8 ± 4.8%; with HeP2 (Larngeal) (100nM) it was 24.7 ± 2.5%; in the data set with HeP2 (Larngeal) (1µM), 12.9 ± 1.4%; in the data set on L132 (Lunng) (1nM), 14.9 ± 4.9%; with L132 (Lunng) (10nM), 24.7 ± 3.5%. Further, the “Percentage cytotoxicity at different concentrations” value was 18.5 ± 3.6% in the data set with L132 (Lunng) (100nM); 12.9 ± 2.4% in the data set on L132 (Lunng) (1µM); 20.9 ± 3.6% in the data set with KB (Oral squamous) (1nM); 21.9 ± 4.1% with KB (Oral squamous) (10nM); 18.0 ± 5.2% in the data set with KB (Oral squamous) (100nM); 9.0 ± 5.3% with KB (Oral squamous) (1µM). Moreover, the “Percentage cytotoxicity at different concentrations” value in the data set on PA-1 (Ovary) (1nM) is given as 12.7 ± 3.5%; with PA-1 (Ovary) (10nM), 26.7 ± 2.4%; in the data set on PA-1 (Ovary) (100nM), 32.9 ± 2.6%; with PA-1 (Ovary) (1µM) it was 23.7 ± 3.3%.
“D-MePhe-D-Trp-Phe-D-TrpLeu(psi)-(CH2NH)-Leu-NH2 [Analog 6]”: in the data set on SCLC, the IC50 (commonly the midpoint of a concentration-inhibition curve) was 2 µM.
As to “D-MePhe-D-Trp-Phe-DTrp-Leu-MPA [Analog 7]”, the IC50 with SCLC was 5 µM.
As to “[D-Arg^1, D-Phe^5, D-Trp^7,9, Leu^11] substance P [Antagonist D]”, in [1], the 50% inhibitory concentration (IC50) was 5 µM.
Consider “pHOPA-D-Trp-Phe-D-Trp-Leu-Leu-NH2 (pHOPA-[dW]F[dW]LL-NH2; reading uncertain) [Analog R]”, for which the half-inhibitory concentration (IC50) in the data set on SCLC is 10 µM.
